Experimental data taken from patent US20200223826A1, “Glucose-6-Phosphate Dehydrogenase (G6PD)-Modulating Agents And Methods Of Treating G6PD Deficiency” (The Board of Trustees of the Leland Stanford Junior …, priority 2017, published 2020).
Marks after values point to notes of the source that are not given here.

Legend:
[1] = system: G6PD; assay: G6PD activation activity, compounds with various linkers; format: biochemical; details: 100 uM compound
Method: Enzyme activity was measured by monitoring NADPH production, which was coupled with diaphorase converting resazurin to fluorescent resorufin (excitation at 565 nm and emission at 590 nm); fluorescent signal was thus proportional to G6PD activity. Assays were performed at 25° C. and run for 5 minutes in buffer containing 50 mM Tris (pH 7.4), 0.5 mM EDTA, 3.3 mM MgCl2, 1 U/ml diaphorase, 0.1 mM resazurin. 10 ng of recombinant enzymes or 10 μg of cell lysates was used for the assay with 10 μM NADP^+ (Sigma) as cofactor and 100 μM G6P (Sigma) as substrate. […] Data analysis was performed using GraphPad Prism software v.6 (GraphPad Software, La Jolla, Calif. USA).

[2] = system: point mutants of the Canton variant of G6PD; assay: Effect of point mutations of Canton G6PD on compound activity; format: biochemical, human; details: mutations on the side opposite the putative binding site
Method: The gene encoding wild-type (WT) G6PD was inserted into the pET-28a vector, using NdeI and SalI restriction sites by polymerase chain reaction (PCR). Site-directed mutagenesis to generate G6PD variants was performed using appropriate primer sets according to the manufacturer's guidelines (Agilent). All constructs were verified by sequencing.
Enzyme activity was measured by monitoring NADPH production, which was coupled with diaphorase converting resazurin to fluorescent resorufin (excitation at 565 nm and emission at 590 nm); fluorescent signal was thus proportional to G6PD activity. Assays were performed at 25° C. and run for 5 minutes in buffer containing 50 mM Tris (pH 7.4), 0.5 mM EDTA, 3.3 mM MgCl2, 1 U/ml diaphorase, 0.1 mM resazurin. 10 ng of recombinant enzymes or 10 μg of cell lysates was used for the assay with 10 μM NADP^+ (Sigma) as cofactor and 100 μM G6P (Sigma) as substrate. Steady-state kinetic parameters were obtained by varying concentrations of NADP^+ (0-10 μM) with a constant concentration of G6P (100 μM) and similarly for G6P (0-100 μM) with a constant concentration of NADP^+ (10 μM) with 10 ng of recombinant enzymes. Data analysis was performed using GraphPad Prism software v.6 (GraphPad Software, La Jolla, Calif. USA). Kinetic parameters were obtained by fitting the data to the Michaelis-Menten equation. […]

[3] = target: T1, wt G6PD obtained from a blood sample (Homo sapiens, UniProt P11413); assay: G6PD enzyme activation on wt G6PD from a blood sample; format: biochemical; details: 100 uM compound
T1 construct: tissue Stanford Blood Center; host or cells: blood / erythrocytes
T1 sequence (P11413 2-515 limits assumed): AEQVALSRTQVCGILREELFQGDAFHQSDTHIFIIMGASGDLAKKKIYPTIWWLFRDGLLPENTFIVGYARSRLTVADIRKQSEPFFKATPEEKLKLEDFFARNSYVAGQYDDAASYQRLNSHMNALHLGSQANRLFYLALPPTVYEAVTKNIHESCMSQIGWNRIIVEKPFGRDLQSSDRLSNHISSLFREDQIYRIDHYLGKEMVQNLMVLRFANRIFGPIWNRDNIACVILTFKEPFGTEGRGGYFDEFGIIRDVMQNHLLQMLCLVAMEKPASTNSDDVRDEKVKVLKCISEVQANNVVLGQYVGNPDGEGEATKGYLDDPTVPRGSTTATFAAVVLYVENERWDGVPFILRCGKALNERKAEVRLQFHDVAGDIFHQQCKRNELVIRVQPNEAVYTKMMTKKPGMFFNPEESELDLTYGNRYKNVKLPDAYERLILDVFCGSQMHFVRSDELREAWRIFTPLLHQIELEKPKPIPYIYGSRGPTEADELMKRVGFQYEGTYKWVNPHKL
Method: Enzyme activity was measured by monitoring NADPH production, which was coupled with diaphorase converting resazurin to fluorescent resorufin (excitation at 565 nm and emission at 590 nm); fluorescent signal was thus proportional to G6PD activity. Assays were performed at 25° C. and run for 5 minutes in buffer containing 50 mM Tris (pH 7.4), 0.5 mM EDTA, 3.3 mM MgCl2, 1 U/ml diaphorase, 0.1 mM resazurin. 10 ng of recombinant enzymes or 10 μg of cell lysates was used for the assay with 10 μM NADP^+ (Sigma) as cofactor and 100 μM G6P (Sigma) as substrate. […]
De-identified blood samples were obtained from the Stanford Blood Center. […] G6PD activity was measured (Beutler E. Red cell metabolism: A manual of biochemical methods (3rd edition). Grune & Stratton (1984)). […] Hemoglobin release in the supernatant was monitored by measuring absorbance at 540 nm. […] After wash, the samples were lysed with 0.1% Triton X-100 (final concentration), and the florescence was analyzed with excitation/emission at 485/525 nm. GSH measurement was determined using a Cayman glutathione assay kit (Cayman Chemicals, 703002). […] The absorbance was read at 412 nm. For storage assay, a 5% erythrocyte suspension was stored at 4° C. with and without 1 μM AG1, and hemolysis and G6PD activity were monitored every week for 28 days to examine whether AG1 improves preservation of erythrocytes over time. […]

[4] = target: T2, Canton G6PD (Homo sapiens, UniProt P11413, R459L); assay: Canton G6PD enzyme activity, diaphorase-coupled assay; format: biochemical; details: Canton G6PD
T2 construct: His (pET-28a) (N, cleaved yes); made in house; host or cells: E. coli C43 (DE3)
T2 sequence (P11413 whole entry R459L): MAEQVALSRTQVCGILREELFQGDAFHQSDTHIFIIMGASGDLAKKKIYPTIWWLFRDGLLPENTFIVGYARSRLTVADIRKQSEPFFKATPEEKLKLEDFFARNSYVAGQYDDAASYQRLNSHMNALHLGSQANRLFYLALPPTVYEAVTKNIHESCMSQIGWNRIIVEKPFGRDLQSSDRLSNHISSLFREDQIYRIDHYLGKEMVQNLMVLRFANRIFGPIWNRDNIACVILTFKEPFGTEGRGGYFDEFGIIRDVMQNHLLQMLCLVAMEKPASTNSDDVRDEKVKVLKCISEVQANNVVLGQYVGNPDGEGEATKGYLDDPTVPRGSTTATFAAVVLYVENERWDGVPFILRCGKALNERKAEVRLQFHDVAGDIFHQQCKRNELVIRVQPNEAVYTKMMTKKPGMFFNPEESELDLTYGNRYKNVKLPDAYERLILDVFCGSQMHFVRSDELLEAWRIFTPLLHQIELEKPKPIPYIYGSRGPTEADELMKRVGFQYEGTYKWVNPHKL
Method: (§1) Enzyme activity was measured by monitoring NADPH production, which was coupled with diaphorase converting resazurin to fluorescent resorufin (excitation at 565 nm and emission at 590 nm); fluorescent signal was thus proportional to G6PD activity. Assays were performed at 25° C. and run for 5 minutes in buffer containing 50 mM Tris (pH 7.4), 0.5 mM EDTA, 3.3 mM MgCl2, 1 U/ml diaphorase, 0.1 mM resazurin. 10 ng of recombinant enzymes or 10 μg of cell lysates was used for the assay with 10 μM NADP^+ (Sigma) as cofactor and 100 μM G6P (Sigma) as substrate. Steady-state kinetic parameters were obtained by varying concentrations of NADP^+ (0-10 μM) with a constant concentration of G6P (100 μM) and similarly for G6P (0-100 μM) with a constant concentration of NADP^+ (10 μM) with 10 ng of recombinant enzymes. Data analysis was performed using GraphPad Prism software v.6 (GraphPad Software, La Jolla, Calif. USA). Kinetic parameters were obtained by fitting the data to the Michaelis-Menten equation.
The diaphorase-coupled enzyme assay as described above was used to screen a library of compounds for small molecule activators. The compounds were added to Canton G6PD enzyme reaction mixture at a final concentration of 16.67 μM using Caliper Life Sciences Staccato system with a Twister II robot and a Sciclone ALH3000 (Caliper Life Sciences, Alameda, Calif. USA) integrated with a V&P Scientific pin tool, which was followed by incubation for 3 hours. Addition of G6P then initiated the reaction, which was run for 2.5 minutes. The fluorescent signals were recorded 4 times during the run using Molecular Devices AnalystGT (Molecular Devices, Sunnyvale, Calif. USA). Any compounds showing 30% activation of the enzyme were rescreened in a dose-dependent manner (0-30 μM, duplicate) to identify potential hits.
(§2) Based on preliminary results with compound AG1, a variety of compounds of interest were prepared and assessed in G6PD enzyme activation assays, according to the methods described herein.

[5] = target: T3, Canton W509A G6PD (Homo sapiens, UniProt P11413, R459L/W509A); assay: Canton W509A G6PD enzyme activation; format: biochemical
T3 construct: His (pET-28a) (N, cleaved yes); made in house; host or cells: E. coli C43 (DE3)
T3 sequence (P11413 whole entry R459L/W509A): as the sequence (P11413 whole entry R459L) above, with W509A counted along it
Method: as §1, §2

[6] = system: zebrafish embryos; assay: Pericardial edema in zebrafish embryos; format: in vivo; details: 50 μg/ml at 24 hpf
Method: Embryos were dechorinated with pronase at 24 hours post fertilization (hpf) and treated with 50 μg/ml of chloroquine and/or AG1 by directly adding the compounds to the well. For ROS measurements, embryos were incubated with compounds for 2 hours, and then the ROS detecting reagent (CM-H2DCFDA) was added at a final concentration of 500 ng/ml to the well for a total treatment time of 5 hours. One embryo was placed to each well of a black, opaque 96-well plate. The florescence was analyzed with excitation/emission at 485/525 nm. After ROS assays, embryos at about 32 hpf were pooled and lysed in buffer containing 50 mM Tris (pH 7.4), 150 mM NaCl, 1 mM EDTA, 0.1% NP-40, and protease inhibitor cocktail, which was followed by three cycles of freeze and thawing in liquid nitrogen. The lysate was centrifuged at 14,000 rpm at 4° C. for 15 minutes. Total protein concentration in the supernatants (total lysate) was determined by Bradford method. 50 μg of total lysate was loaded onto 10% SDS-PAGE gels and the protein level was examined by Western blot using anti-G6PD antibody (Abcam (G6PD: AB87230)). 10 μg of total lysate was used for enzymatic assay. 50 μg of the lysate was used to measure NADPH levels using a NADPH quantification kit (Biovision), according to the manufacturer's instructions.
Live embryos were anesthetized and mounted in 3% methylcellulose. Embryos were imaged with a Leica M205FA microscope equipped with a 1.0× Plan Apochromatic objective and a SPOT Flex camera or a Leica DM4500B compound microscope equipped with a QImaging Retiga-SRV camera. For hemoglobin staining, fixed embryos were stained with o-dianisidine as previously reported (10), cleared, mounted in 100% glycerol, and imaged with a Leica M205FA microscope equipped with a 1.0× Plan Apochromatic objective and a SPOT Flex camera. All images were captured using SPOT or MetaMorph imaging software (Diagnostic Imaging Inc.) and processed in Photoshop (Adobe). Adjustments were limited to brightness levels and cropping. Analysis was carried out by an observer blinded to the experimental conditions.

Compound: 2-[2-(1H-indol-3-yl)ethylamino]ethanethiol [AG1]
- Enzyme activity (%) [1]: 156%^c
- effect of mutations on AC50 [2]: no effect on AC50
- Enzyme activity (%) [3]: 127%

Compound: c1cc(CNCCc2ccc3c(c2)OCO3)c2c(CNCCc3ccc4c(c3)OCO4)cccc2c1 [AR4-078]
- AC50 [4]: 74 µM
- Amax [4]: 2.0
- AC50 [5]: 58 µM
- Amax [5]: 3.8
- enzyme activity at 100 µM [3]: 154%

Compound: CCN(CC)CCCC(C)Nc1ccnc2cc(Cl)ccc12 (stereo not drawn) [chloroquine, reference compound]
- effect of chloroquine on embryos [6]: led to pericardial edema and increased ROS levels
